pEC50, pIC50, pKi: −log10 of the molar value. Counter-ions that a name gives are not always drawn. Like-named read-outs stand apart in the source and are kept apart here.

The target in one assay is AgOAR45A (Anopheles gambiae, UniProt Q7PRZ8, DEL426-427). Description: cell-based.
For assay [1], the target named is T1, AgOAR45B (Anopheles gambiae, UniProt F5HJT6). It is filed as cell-based. Conditions: for pIC50: read-out: IC 50 (antagonist), in the presence of 1 μM octopamine. As for the experimental part:
GloResponse™CRE-luc2P HEK293 reporter cell line (Promega) were maintained as adherent culture at 37°C, 5% CO2 in DMEM (Invitrogen) supplemented with 10% fetal calf serum (Atlanta), and […] hygromycin B. Transfection of cells was carried out using the Amaxa Nucleofector kit per the manufacturer’s instructions. […] Stable lines were created by applying […] G418 for three weeks. Stable clones of AgOAR45B expressing HEK293 reporter cells were created through two rounds of limiting dilution cloning.
Intracellular cAMP increase was monitored through a CRE-luc reporter construct in HEK293 cells (Promega). Stable cell lines were plated at a density of 4×10^4 cells per well in white 96-well assay plates (Corning, Cat. #3917). Cells were immediately treated with the various compounds, and returned to the incubator for four hours before being assayed. cAMP was quantified through luciferase production using the Dual-Glo luciferase assay kit (Promega) following the manufacturer’s instructions. Luciferase units were normalized to the cell number using the internal Rluc construct in the pF9A expression plasmid.

Assay [2] concerns the target T1, AgOAR45B. The assay can be described thus: 3H-Yohimbine competition radioligand binding assay on membranes. Conditions: competition with 16 nM 3H-Yohimbine. As for the experimental part:
Cells in T75 flasks were washed with 10 ml of PBS, removed by scraping, centrifuged at 500 g, and then resuspended in 5 ml of lysis buffer, 50 mM Tris-Cl pH 7.4. Cells were incubated on ice for 10 min and homogenized with a Dounce homogenizer with 30 strokes. The homogenate and 5 ml wash with lysis buffer were then centrifuged at 23,000 g for 30 min at 4°C to pellet crude membranes. The resulting pellet was re-suspended in 50 mM Tris-Cl pH 7.4, 5 mM MgCl2, 0.5 mM EDTA pH 7.4 and quantified by micro BCA assay (Thermo).
Radioligand binding assays were carried out using ^3H-Yohimbine to determine binding affinity of the octopamine receptor with different compounds. Isolated membranes, 30 μg per well, were incubated in the presence of 16 nM ^3H-Yohimbine (American Radiolabeled Chemicals) in binding buffer, and various concentrations of compounds. The final reaction volume was […] per well in a 96-well assay plate. […] clonidine was used to determine non-specific binding in each experiment. After a two-hour incubation, membranes were collected and washed on filter mats, pretreated with 0.3% polyethylenimine (Sigma) using a Brandel 96-well harvester and counted in a Perkin Elmer Microbeta counter.

The mark [3] stands for this setting: read-out: EC 50 (agonist), AgOAR45B, HEK293-CRE-Luc cells.

T1 sequence (F5HJT6 entry or part of it): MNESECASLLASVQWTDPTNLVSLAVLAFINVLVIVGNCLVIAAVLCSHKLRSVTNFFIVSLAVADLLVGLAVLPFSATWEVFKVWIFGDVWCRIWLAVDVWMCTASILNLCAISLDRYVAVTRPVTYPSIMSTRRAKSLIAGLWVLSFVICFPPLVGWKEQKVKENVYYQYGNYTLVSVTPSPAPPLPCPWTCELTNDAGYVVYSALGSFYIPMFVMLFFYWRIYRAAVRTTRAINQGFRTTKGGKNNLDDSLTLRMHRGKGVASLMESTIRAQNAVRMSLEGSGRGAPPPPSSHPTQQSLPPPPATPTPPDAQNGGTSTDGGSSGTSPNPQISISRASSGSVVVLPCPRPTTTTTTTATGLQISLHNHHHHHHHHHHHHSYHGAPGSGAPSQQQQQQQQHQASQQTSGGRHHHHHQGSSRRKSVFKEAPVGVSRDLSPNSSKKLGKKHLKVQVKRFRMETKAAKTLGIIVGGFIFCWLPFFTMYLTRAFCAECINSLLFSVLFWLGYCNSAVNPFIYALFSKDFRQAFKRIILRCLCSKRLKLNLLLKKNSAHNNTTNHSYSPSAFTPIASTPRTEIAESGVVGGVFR
Sequence of AgOAR45A (Q7PRZ8 entry or part of it DEL426-427): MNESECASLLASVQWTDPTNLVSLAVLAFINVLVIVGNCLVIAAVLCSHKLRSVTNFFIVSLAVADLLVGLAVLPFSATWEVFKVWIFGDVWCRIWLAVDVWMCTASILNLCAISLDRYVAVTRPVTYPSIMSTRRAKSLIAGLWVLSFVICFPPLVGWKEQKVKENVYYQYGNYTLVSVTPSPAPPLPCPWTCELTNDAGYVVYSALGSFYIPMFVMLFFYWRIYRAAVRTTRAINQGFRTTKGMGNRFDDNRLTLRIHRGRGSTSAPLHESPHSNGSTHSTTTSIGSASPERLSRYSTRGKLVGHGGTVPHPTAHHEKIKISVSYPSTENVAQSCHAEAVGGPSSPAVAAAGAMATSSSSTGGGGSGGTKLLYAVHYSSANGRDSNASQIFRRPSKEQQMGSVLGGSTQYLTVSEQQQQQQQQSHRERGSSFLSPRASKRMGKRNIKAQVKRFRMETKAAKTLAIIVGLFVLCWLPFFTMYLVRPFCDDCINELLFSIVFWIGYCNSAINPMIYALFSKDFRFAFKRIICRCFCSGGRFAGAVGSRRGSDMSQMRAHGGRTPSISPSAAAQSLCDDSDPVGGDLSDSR

Take `NCC(O)c1ccc(O)cc1` (racemic) [Octopamine, DL-octopamine]: the pEC50 was 7.28 at AgOAR45A; 7.77 on AgOAR45B [1] (Table 2, AgOAR45B reporter assay); 7.77 at AgOAR45B [1] (setting [3]). Moreover, the negative logarithm of the Ki (pKi) at AgOAR45B [2] was 5.11.

As for `CN(C)CCCN1c2ccccc2Sc2ccc(Cl)cc21` [Chlorpromazine, chlorpromazine], the pIC50 on AgOAR45B [1] (AgOAR45B) is 5.00.

Take `Clc1cccc(Cl)c1N=C1NCCN1` [Clonidine, clonidine]: the values for the pEC50 on AgOAR45A and on AgOAR45B [1] (setting [3]) were 8.70 and 9.62, respectively.

Consider `NCCc1ccc(O)c(O)c1` [Dopamine, dopamine], for which the pEC50 on AgOAR45A and at AgOAR45B [1] (setting [3]) was below 4.30 throughout.

For the molecule `CCN(CC)CCNC(=O)c1cc(Cl)c(N)cc1OC` [Metaclopramide, Metoclopramide hydrochloride], the pIC50 at AgOAR45B [1] (AgOAR45B) was below 4.30.

With `c1ccc2c(CC3=NCCN3)cccc2c1` [Naphazoline, naphazoline], the pEC50 was 8.66 at AgOAR45A and 9.64 on AgOAR45B [1] (setting [3]).

Turning to `Cc1ccc(N(CC2=NCCN2)c2cccc(O)c2)cc1` [Phentolamine, phentolamine], the values for the pEC50 on AgOAR45A and on AgOAR45B [1] (setting [3]) were 8.00 and 8.24, respectively.

`CC(CN1c2ccccc2Sc2ccccc21)N(C)C` (stereo not drawn) [Promethazine, promethazine]: the pIC50 at AgOAR45B [1] (AgOAR45B) was 5.70.

For the molecule `NCCc1c[nH]c2ccc(O)cc12` [Serotonin, serotonin], the pEC50 at AgOAR45A and on AgOAR45B [1] (setting [3]) was below 4.30 each time.

Consider `c1ccc(CC2=NCCN2)cc1` [Tolazoline, tolazoline], for which the pEC50 at AgOAR45A is 6.55; at AgOAR45B [1] (setting [3]), 8.30.

With `NCCc1ccc(O)cc1` [Tyramine, tyramine], the pEC50 is 5.34 on AgOAR45A and 6.08 on AgOAR45B [1] (setting [3]).

The values are drawn from paper PMC4253978, “Characterization of the Anopheles gambiae octopamine receptor and discovery of potential agonists and antagonists using a combined computational-experimental approach” (Malaria Journal, 2014).
